US7998974B2, “Fused heterocyclic compounds and their use as sirtuin modulators” (Sirtris Pharmaceuticals, Inc., priority 2005, dated 2011)

Target: T1, SIRT1 (Homo sapiens, UniProt Q96EB6)
T1 sequence (Q96EB6 1-747): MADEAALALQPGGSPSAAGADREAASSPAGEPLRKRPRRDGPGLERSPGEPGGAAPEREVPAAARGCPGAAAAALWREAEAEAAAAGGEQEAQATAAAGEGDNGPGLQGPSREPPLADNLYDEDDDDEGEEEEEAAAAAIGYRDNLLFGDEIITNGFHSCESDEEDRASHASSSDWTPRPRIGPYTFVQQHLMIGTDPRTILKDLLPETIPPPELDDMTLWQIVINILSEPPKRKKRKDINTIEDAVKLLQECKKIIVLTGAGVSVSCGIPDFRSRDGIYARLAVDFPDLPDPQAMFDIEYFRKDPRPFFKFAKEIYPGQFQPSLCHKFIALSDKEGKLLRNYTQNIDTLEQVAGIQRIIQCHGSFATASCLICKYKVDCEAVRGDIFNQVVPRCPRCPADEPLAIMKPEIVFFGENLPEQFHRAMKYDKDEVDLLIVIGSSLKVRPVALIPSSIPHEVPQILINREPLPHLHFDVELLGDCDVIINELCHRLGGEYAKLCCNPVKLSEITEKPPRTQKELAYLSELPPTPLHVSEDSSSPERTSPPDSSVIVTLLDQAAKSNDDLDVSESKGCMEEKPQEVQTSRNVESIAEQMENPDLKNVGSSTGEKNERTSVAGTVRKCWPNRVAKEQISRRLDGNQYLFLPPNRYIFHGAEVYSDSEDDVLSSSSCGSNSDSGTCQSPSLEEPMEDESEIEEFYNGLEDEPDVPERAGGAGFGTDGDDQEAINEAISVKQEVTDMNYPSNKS
Assay: Fluorescence polarization or mass spectrometry based assay to identify modulators of SIRT1 activity;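 also: deacetylation of a fluorophore-tagged p53-derived acetyl peptide by SIRT1, detected as fluorescence polarization after trypsin cleavage and streptavidin binding, compounds tested at 11 doses from 0.7 to 100 µM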
Type: biochemical
Conditions: for EC50: activation of SIRT1 (Table 3), read-out: ED50 (the source's name)

Structure (SMILES) | EC50 [µM] | IC50 (inhibition of SIRT1 (Table 4)) [µM]
Cc1[nH]c2ccccc2c1/C=C(\C#N)c1nc2ccccc2[nH]1 [Compound 1] | 101 to 150 | –
O=C(Nc1cccc(-c2nc3ccccc3[nH]2)c1)c1cccnc1 [Compound 3] | > 150 | –
Nc1ccc(C(=O)Nc2ccc3[nH]c(-c4ccccc4)nc3c2)cc1 [Compound 4] | 51 to 100 | –
Cc1csc(NC(=O)c2ccccc2C(=O)O)c1-c1nc2ccccc2s1 [Compound 6] | < 50 | –
COc1ccccc1NC(=O)Nc1nn(C)c2cccc(OC)c12 [Compound 7] | 101 to 150 | –
COc1cccc2c1c(NC(=O)c1cc3ccccc3s1)nn2C [Compound 8] | > 150 | –
N#C/C(=C\c1ccc(-c2ccc(C(=O)O)cc2)o1)c1nc2ccccc2[nH]1 [Compound 9] | < 50 | –
COc1ccc2nc3s/c(=C\c4ccc(-c5ccc(Cl)c(C(=O)O)c5)o4)c(=O)n3c2c1 [Compound 10] | < 50 | –
COc1cc(C(=O)Nc2cccc(-c3nc4ccccc4[nH]3)c2)cc(OC)c1OC [Compound 11] | 51 to 100 | –
N#CC(C(=O)c1cc2ccccc2o1)c1nc2ccccc2s1 (stereo not drawn) [Compound 12] | 51 to 100 | –
N#Cc1cc(Oc2nc3ccccc3s2)c(N2CCOCC2)cc1C#N [Compound 13] | 101 to 150 | –
Nc1ccc2nc(-c3ccc(-c4nc5ccc(N)cc5[nH]4)cc3)[nH]c2c1 [Compound 15] | 51 to 100 | –
Nc1ccc2[nH]c(-c3cccc(-c4nc5cc(N)ccc5[nH]4)c3)nc2c1 [Compound 16] | 51 to 100 | –
Cc1[nH]c2ccccc2c1/C=C/c1nc2ccccc2c(=O)[nH]1 [Compound 17] | > 150 | –
Nc1ccc2[nH]c(/C=C/c3nc4cc(N)ccc4[nH]3)nc2c1 [Compound 18] | 51 to 100 | –
Cc1ccsc1/C=C(\C#N)c1nc2ccccc2[nH]1 [Compound 19] | 101 to 150 | –
COC(=O)c1[nH]c2cc(OC)c(OC)cc2c1NC(=O)c1cccs1 [Compound 20] | 101 to 150 | –
O=C(Nc1c(C(=O)O)[nH]c2ccc(Br)cc12)c1ccc(F)cc1 [Compound 21] | 51 to 100 | –
COC(=O)c1[nH]c2cc(OC)c(OC)cc2c1NC(=O)c1cccc(OC)c1 [Compound 22] | > 150 | –

Structure (SMILES) | EC50 [µM] | IC50 (inhibition of SIRT1 (Table 4)) [µM]
COc1cccc(C(=O)Nc2cccc(-c3cn4ccccc4n3)c2)c1 [Compound 23] | > 150 | –
COc1cc(/C=C(\C#N)c2nc3ccccc3[nH]2)cc(OC)c1OC [Compound 24] | 101 to 150 | –
O=C(Nc1cccc(-c2nc3ccccc3[nH]2)c1)c1ccco1 [Compound 25] | 51 to 100 | –
Cc1cccc(-c2nc3c(C(=O)NC4CCC(N)CC4)cccn3c2NCc2ccccc2)c1 (stereo not drawn) [Compound 26] | 101 to 150 | –
CC(=O)Nc1ccc(-c2nc3c(C(=O)NC4CCC(N)CC4)cccn3c2NC2CCCCC2)cc1 (stereo not drawn) [Compound 27] | 51 to 100 | –
CCCCNc1c(-c2ccc(OC)c([N+](=O)[O-])c2)nc2c(C(=O)NC(CC(=O)O)C3CCCCC3)cccn12 (stereo not drawn) [Compound 28] | 101 to 150 | –
COc1ccc(-c2nc3c(C(=O)NC(CC(=O)O)C4CCCCC4)cccn3c2NCc2ccccc2)cc1[N+](=O)[O-] (stereo not drawn) [Compound 31] | > 150 | –
CCCCNc1c(-c2ccc(OC)c([N+](=O)[O-])c2)nc2c(C(=O)NCCCN)cccn12 [Compound 33] | 101 to 150 | –
COc1ccc(-c2nc3c(C(=O)NCCCN)cccn3c2NCc2ccccc2)cc1[N+](=O)[O-] [Compound 34] | 101 to 150 | –
CC(=O)Nc1ccc(-c2nc3c(C(=O)NCc4cccc(CN)c4)cccn3c2NCc2ccccc2)cc1 [Compound 35] | 51 to 100 | –
CC(=O)Nc1ccc(-c2nc3c(C(=O)NC(CC(=O)O)C4CCCCC4)cccn3c2NC(C)(C)C)cc1 (stereo not drawn) [Compound 36] | 101 to 150 | –
O=C(O)CC(NC(=O)c1cccn2c(NCc3ccccc3)c(-c3ccc4ccccc4c3)nc12)C1CCCCC1 (stereo not drawn) [Compound 38] | > 150 | –
COc1ccc(-c2nc3cc(C(=O)NC(CC(=O)O)c4ccc(C)cc4)ccn3c2NC2CCCCC2)cc1OC (stereo not drawn) [Compound 39] | 101 to 150 | –
COc1ccc(-c2nc3cc(C(=O)NCc4cccc(CN)c4)ccn3c2NC2CCCCC2)cc1[N+](=O)[O-] [Compound 40] | 101 to 150 | –
CC(=O)Nc1ccc(-c2nc3c(C(=O)NC(C)C(=O)NCCCN4CCCC4=O)cccn3c2NCc2ccccc2)cc1 (stereo not drawn) [Compound 41] | 101 to 150 | –
N#CCCNC(=O)CNC(=O)c1cccn2c(NCC3CCCO3)c(-c3ccc(Cl)cc3)nc12 (stereo not drawn) [Compound 42] | 51 to 100 | –
COc1ccc(-c2nc3c(C(=O)NC(C)C(=O)NCCC#N)cccn3c2NCC2CCCO2)cc1 (stereo not drawn) [Compound 44] | 101 to 150 | –
COc1cccc(-c2nc3c(C(=O)NC(C)C(=O)NCCC#N)cccn3c2NC2CCCCC2)c1 (stereo not drawn) [Compound 46] | 51 to 100 | –
CC(=O)Nc1ccc(-c2nc3c(C(=O)NCC(=O)NCCC#N)cccn3c2NCc2ccccc2)cc1 [Compound 47] | 51 to 100 | –

Structure (SMILES) | EC50 [µM] | IC50 (inhibition of SIRT1 (Table 4)) [µM]
Cc1nn(C)c(Cl)c1-c1nc2c(C(=O)NC(C)C(=O)NCCC#N)cccn2c1NCc1ccccc1 (stereo not drawn) [Compound 48] | 101 to 150 | –
COCCNC(=O)c1cccn2c(NCc3ccccc3)c(-c3ccc(NC(=O)N4CCOCC4)cc3)nc12 [Compound 49] | 51 to 100 | –
COCCNC(=O)c1cccn2c(NCc3ccccc3)c(-c3ccc(NC(=O)c4ccco4)cc3)nc12 [Compound 50] | > 150 | –
COCCNC(=O)c1cccn2c(NCc3ccccc3)c(-c3ccc(NC(=O)C4CC4)cc3)nc12 [Compound 51] | 51 to 100 | –
CC(=O)NCCNC(=O)c1cccn2c(NCc3ccccc3)c(-c3ccc(NC(=O)c4ccco4)cc3)nc12 [Compound 52] | 101 to 150 | –
O=C(NCCN1CCNC1=O)c1cccn2c(NCc3ccccc3)c(-c3ccc(NC(=O)N4CCOCC4)cc3)nc12 [Compound 53] | 101 to 150 | –
O=C(Nc1ccc(-c2nc3c(C(=O)NCCN4CCNC4=O)cccn3c2NCc2ccccc2)cc1)c1ccco1 [Compound 54] | > 150 | –
Cc1cc(C(=O)Nc2ccc(-c3nc4c(C(=O)NCCN5CCNC5=O)cccn4c3NCc3ccccc3)cc2)no1 [Compound 55] | > 150 | –
CCCCNc1c(-c2ccc(NC(=O)CC(C)C)cc2)nc2c(C(=O)NCCN3CCNC3=O)cccn12 [Compound 56] | > 150 | –
CC(C)CC(=O)Nc1ccc(-c2nc3c(C(=O)NCCN4CCNC4=O)cccn3c2NC(C)(C)C)cc1 [Compound 57] | > 150 | –
O=C(NCCCN1CCCC1=O)c1cccn2c(NC3CCCCC3)c(-c3ccc(NC(=O)N4CCOCC4)cc3)nc12 [Compound 58] | < 50 | –
O=C(Nc1ccc(-c2nc3c(C(=O)NCCCN4CCCC4=O)cccn3c2NC2CCCCC2)cc1)c1ccco1 [Compound 59] | 101 to 150 | –
O=C(NCCCN1CCCC1=O)c1cccn2c(NC3CCCCC3)c(-c3ccc(NC(=O)C4CC4)cc3)nc12 [Compound 60] | 51 to 100 | –
CCCCNc1c(-c2ccc(NC(=O)c3ccc(Cl)nc3)cc2)nc2c(C(=O)NCCCN3CCCC3=O)cccn12 [Compound 61] | > 150 | –
COc1ccc2c(c1)C(=O)C(c1nc3ccccc3s1)C2=O (stereo not drawn) [Compound 62] | < 50 | –
CN(C)/C=C(\C#N)c1nc2ccccc2[nH]1 [Compound 64] | 51 to 100 | –
O=C(O)CCC(=O)Nc1cccc(-c2nc3cc4ccccc4cc3[nH]2)c1 [Compound 65] | > 150 | –
Cc1nc2cc3nc4c5cccc6cccc(c(=O)n4c3cc2[nH]1)c65 [Compound 66] | 101 to 150 | –
COC(=O)CC(=O)Nc1ccccc1-c1nc2ccc(C(=O)NCc3ccc4c(c3)OCO4)cn2c1NC1CCCCC1 [Compound 84] | – | < 50
